From patent US20220079966A1, “HYALURONAN SYNTHESIS INHIBITION FOR TREATING AUTOIMMUNE, INFLAMMATORY, FIBROTIC, OR PROLIFERATIVE DISEASES OR DISORDERS” (The Board of Trustees of the Leland Stanford Junior …, priority 2018, published 2022)

How the values were obtained:
B16F10 cells = experiment: HA production and HA staining by B16F10 melanoma cells (HA ELISA, HABP staining); assay type: cell-based, murine; details: for HA production (HA synthesis inhibition) by B16F10 cells: 48 hours of drug exposure, 30, 100, 300 μM, HA ELISA; for HA staining of B16F10 cells with HA binding protein (HABP): fluorescent staining
Procedure: To test this, murine melanoma cells (B16F10), a cell line known to produce abundant HA, were used. […] FIGS. 4D and 4E show HA production by B16F10 cells cultured for 48 hours in 4-MU (FIG. 1D) or 4-MUG (FIG. 1E). […] Data represent mean±SEM; *, p<0.05 by unpaired t test. Similar findings were seen as well in primary lymphocytes.
B16F10 cells were cultured in DMEM and were treated with different concentrations of 4-MU and 4-MUG (30, 100, 300 μM) for 24 and 48 hours. Cultured cells were lysed and analyzed for HA concentration determination using an HA ELISA. HA staining in B16F10 cells placed in 96 well plates were imaged using fluorescence microscopy. To measure 4-MU florescence intensity in B16F10 cells treated with 4-MU and 4-MUG, B16F10 cells were trypsinized and 4-MU fluorescence associated with the cells was analyzed by flow cytometry in the Pacific Blue channel using a BD™ LSRII flow cytometer. For permeabilization, after trypsinization, cells were incubated in methanol at −20° C. for 20 min and washed once before flow cytometric analysis.
Samples were thawed and assayed for HA levels using a modified HA ELISA as previously described (Nagy N., et al., J. Clin. Invest. 2015; 125(10):3928-3940). Each sample was analyzed in triplicate with a mean value obtained per sample. For cell normalization, LI-COR CellTag™ 700 Stain was used according to the manufactures protocol.

[1] = cited from earlier work
[2] = test system: Foxp3+ regulatory T-cells; experiment: Splenocyte regulatory T-cell analysis in wild type mice treated i.p. for 14 days; assay type: in vivo; details: 4-MU 0.5 mg i.p. or 4-MUG 1 mg i.p. daily for 14 days; for Foxp3+ amongst CD3+/CD4+ cells in splenocytes: flow cytometry
Procedure: The 4-MU (Alfa Aesar) was pressed into mouse chow (TestDiet, St. Louis, Mo.) and irradiated before shipment, as previously described (Nagy N., et al., Circulation. 2010; 122(22):2313-2322). This chow formulation delivers 250 mg/mouse/day, yielding a serum drug concentration of 640.3±17.2 nmol/L in mice, as measured by HPLC-MS. 4-MUG (ChemImpex, Wood Dale, Ill.) was distributed in the drinking water at a concentration of 2 mg/ml, delivering 10 mg/mouse/day, yielding a serum drug concentration of 357.1±72.6 ng/mL in mice, as measured by LC-MS/MS. Mice were initiated on 4-MU and 4-MUG at five, eight or twelve weeks of age, unless otherwise noted, and were maintained on this diet until they were euthanized, unless otherwise noted. For analysis of Foxp3+ regulatory T-cell numbers in naïve mice, mice were treated daily with 0.5 mg of 4-MU or 1.0 mg 4-MUG in 200 μl 0.08% carboxymethylcellulose in saline by intra-peritoneal injection.
Spleens were extracted from mice and cells were harvested by homogenization through a 70 μm cell strainer. Red blood cells were lysed using ACK buffer, after which the splenocyte suspensions were stained according to the protocol described above with the following fluorochrome-conjugated antibodies. V500-CD3 (500A2), BV785-CD4 (RM4-5) and A1488-Foxp3 (FJK-16s). Flow cytometry was performed on an LSRII and data analysis was done using FlowJo (Treestar).

DORmO mice = experiment: DORmO mouse model of type 1 diabetes; assay type: in vivo; details: for HA accumulation in DORmO pancreatic islets (HA staining): 12 weeks of age, compared to untreated DORmO mice; for onset / progression of T1D as measured by blood glucose over time: fed from 5 weeks of age for 15 weeks
From the text: 10×RIPmOVA (DORmO) mouse. DORmO mice carry a T-cell receptor transgene specific for OVA (emulating autoreactive CD4+ T-cells), while simultaneously expressing OVA in conjunction with the insulin gene promoter on pancreatic beta cells (emulating the autoantigen). All animals were bred and maintained under specific pathogen-free conditions, with free access to food and water, in the animal facilities at Stanford University Medical School (Stanford, Calif.). B6 db/db LeptR-/- mice were purchased from Jackson Laboratories (JAX) as well as DO11.10 transgenic mice. The DO11.10 mice were bred with Balb/c mice expressing RIPmOva (ovalbumin peptide amino acids 323-339; available at the Benaroya Research Institute) to generate the DORmO double-transgenic mice. In addition, C57Bl/6J mice were bred in-house at Stanford University School of Medicine. Beginning at four weeks of age, mice were weighed weekly as well as bled via the tail vein for the determination of their blood glucose level using a Contour® blood glucose meter and blood glucose monitoring strips (Bayer Healthcare). When two consecutive blood glucose readings of 250 mg/dL were recorded, animals were considered diabetic. When two consecutive blood glucose readings of 300 mg/dL were recorded, animals were euthanized. The 4-MU (Alfa Aesar) was pressed into mouse chow (TestDiet, St. Louis, Mo.) and irradiated before shipment, as previously described (Nagy N., et al., Circulation. 2010; 122(22):2313-2322). This chow formulation delivers 250 mg/mouse/day, yielding a serum drug concentration of 640.3±17.2 nmol/L in mice, as measured by HPLC-MS. 4-MUG ([…], Wood Dale, Ill.) was distributed in the drinking water at a concentration of 2 mg/ml, delivering 10 mg/mouse/day, yielding a serum drug concentration of 357.1±72.6 ng/mL in mice, as measured by LC-MS/MS. Mice were initiated on 4-MU and 4-MUG at five, eight or twelve weeks of age, unless otherwise noted, and were maintained on this diet until they were euthanized, unless otherwise noted. For analysis of Foxp3+ regulatory T-cell numbers in naïve mice, mice were treated daily with 0.5 mg of 4-MU or 1.0 mg 4-MUG in 200 μl 0.08% carboxymethylcellulose in saline by intra-peritoneal injection. Tissues for histochemistry were extracted from the animals and immediately transferred into 10% neutral buffered formalin (NBF). The tissue was processed to paraffin on a Leica ASP300 Tissue Processor (Leica Microsystems Inc.). Then 5 μm thick sections were cut on a Leica RM 2255 Microtomes (Leica Microsystems Inc.). All staining steps were performed on a Leica Bond-MaxTM automated immune histochemistry (IHC) stainer (Leica Microsystems Inc.). For HA affinity histochemistry (AFC) the BondTM Intense R Detection kit, a streptavidin-HRP system, (Leica Microsystems, Inc.) was used with 4 μg/mL biotinylated-HABP in 0.1% BSA-PBS as the primary. The BondTM Polymer Detection Kit was used for all other immunohistochemistry. This detection kit contains a goat anti-rabbit conjugated to polymeric HRP and a rabbit anti-mouse post primary reagent for use with mouse primaries. For Foxp3 and insulin (anti-insulin, ab7842 abcam) sections were incubated 60 min with 8 μg/mL rat anti-Foxp3 clone FJK-16s (eBioscience). Incubation with rabbit anti rat IgG (Vector Labs), post-primary was added in lieu of the post-primary reagent from the kit.

SMILES	HA production (HA synthesis inhibition) by B16F10 cells (B16F10 cells)	HA staining of B16F10 cells with HA binding protein (HABP) (B16F10 cells)	concentration of 4-MUG relative to parent molecule 4-MU ([1]; animal studies)	median plasma concentration of 4-MUG relative to 4-MU ([1]; mouse models)	CD4+ and CD3+ T-cell numbers in splenocytes [2]	Foxp3+ MFI amongst CD3+/CD4+ cells in splenocytes [2]	Foxp3+ amongst CD3+/CD4+ cells in splenocytes [2]	HA accumulation in DORmO pancreatic islets (HA staining) (DORmO mice)	onset / progression of T1D as measured by blood glucose over time (DORmO mice)	half-life ([1]; in mice)	insulin positive cells in pancreatic islets (DORmO mice; DORmO mice)	Foxp3 regulatory T-cells in pancreatic islets (FoxP3 staining) (DORmO mice; non-diabetic treated DORmO mice)
Cc1cc(=O)oc2cc(O[C@@H]3O[C@H](C(=O)O)[C@@H](O)[C@H](O)[C@H]3O)ccc12 [4-MUG, 4-methylumbelliferone-glucuronide]	concentration dependent inhibition of HA synthesis	reduced HA	300 fold	more than 3,000 fold	not affected	increase in their expression of Foxp3	increase of Foxp3+ regulatory T-cells	decrease of HA accumulation	delayed the onset of T1D			
Cc1cc(=O)oc2cc(O)ccc12 [4-MU, 4-methylumbelliferone]	concentration dependent inhibition of HA synthesis	reduced HA			not affected	increase in their expression of Foxp3	increase of Foxp3+ regulatory T-cells	decrease of HA accumulation	sufficient to stop diabetes progression	3 min	insulin positive cells were preserved	increase of Foxp3 regulatory T-cells
